Read-outs that look alike come from different tables or passages of the source.
Columns and labels:
CYP1A = molecular target: T1, CYP1A (Homo sapiens, UniProt P05177); assay: CYP inhibition in human liver microsomes, CYP1A; assay type: in vitro ADME; conditions: probe phenacetin, substrate phenacetin, read-out: CYP1A Inh %
T1 construct: incubated with human liver microsomes; tissue Eurofins ITEMG232; host or cells: human liver microsomes
T1 sequence (P05177 1-516): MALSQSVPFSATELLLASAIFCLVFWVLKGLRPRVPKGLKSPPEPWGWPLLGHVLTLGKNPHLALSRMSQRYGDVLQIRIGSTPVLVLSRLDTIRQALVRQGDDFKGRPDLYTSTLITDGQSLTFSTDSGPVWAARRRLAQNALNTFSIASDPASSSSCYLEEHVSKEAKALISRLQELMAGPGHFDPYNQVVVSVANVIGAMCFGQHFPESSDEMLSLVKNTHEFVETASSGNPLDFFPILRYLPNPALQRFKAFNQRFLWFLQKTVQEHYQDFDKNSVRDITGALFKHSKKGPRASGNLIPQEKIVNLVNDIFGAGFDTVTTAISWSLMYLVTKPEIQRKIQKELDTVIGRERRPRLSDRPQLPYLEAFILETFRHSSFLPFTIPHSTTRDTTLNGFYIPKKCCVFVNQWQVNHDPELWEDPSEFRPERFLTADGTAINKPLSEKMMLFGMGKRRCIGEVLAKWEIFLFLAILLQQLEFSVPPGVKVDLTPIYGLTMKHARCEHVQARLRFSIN
Description: (§1) The following substrates were used: CYP1A phenacetin, CYP2B6 bupropion, CYP2C8 paclitaxel and amodiaquine, CYP2C9 diclofenac, CYP2C19 omeprazole, CYP2D6 dextromethorphan, CYP3A midazolam and testosterone. At the end of the incubation, the formation of metabolite was monitored by HPLC-MS/MS as the peak area response.

[1] = Metabolic stability in pooled human liver microsomes; assay type: in vitro ADME; conditions: pooled human liver microsomes 0.5 mg/ml, 1 μM test compound, 37° C.
Description: Pooled human liver microsomes in PBS at a concentration of 0.5 mg/ml was incubated with or without 1 mM NADPH for 70 min at 37° C. Test compound was added after 10 minutes to a final concentration of 1 μM. Samples were withdrawn at 0, 5, 15 and 60 minutes and added to test tubes containing acetonitrile, to stop the reaction, and with terfenadine, used as internal standard. After centrifugation at 10 000×g for 5 minutes the supernatant was diluted 1:1 with 1% formic acid. Samples were separated on a reverse phase column and detected by triple quadrupole MSMS (Agilant model 6540). The concentration of the parent compound at the different time points was measured with an external standard curve using terfenadine as internal standard and the initial metabolic rate in the presence or absence of NADPH calculated.

CYP2C8 = molecular target: T2, CYP2C8 (Homo sapiens, UniProt P10632); assay: CYP inhibition in human liver microsomes, CYP2C8; assay type: in vitro ADME; conditions: probe paclitaxel and amodiaquine, substrate paclitaxel and amodiaquine, read-out: CYP2C8 Inh %
T2 construct: incubated with human liver microsomes; tissue Eurofins ITEMG232; host or cells: human liver microsomes
T2 sequence (P10632 1-490): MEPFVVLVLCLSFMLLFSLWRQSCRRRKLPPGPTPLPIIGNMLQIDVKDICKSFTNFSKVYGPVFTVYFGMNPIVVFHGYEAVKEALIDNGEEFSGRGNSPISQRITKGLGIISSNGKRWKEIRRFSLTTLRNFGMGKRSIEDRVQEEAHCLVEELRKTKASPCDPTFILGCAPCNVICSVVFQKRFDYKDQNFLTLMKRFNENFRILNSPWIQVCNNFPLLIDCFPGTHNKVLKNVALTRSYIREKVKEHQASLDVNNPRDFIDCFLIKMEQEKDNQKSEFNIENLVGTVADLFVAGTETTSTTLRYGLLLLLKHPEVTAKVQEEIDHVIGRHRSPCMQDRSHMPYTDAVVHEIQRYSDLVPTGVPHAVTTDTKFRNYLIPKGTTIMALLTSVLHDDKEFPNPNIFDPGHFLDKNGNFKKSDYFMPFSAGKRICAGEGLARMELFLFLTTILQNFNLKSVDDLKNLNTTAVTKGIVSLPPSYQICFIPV
Description: as §1

CYP2C9 = CYP2C9 (Homo sapiens, UniProt P11712); assay: CYP inhibition in human liver microsomes, CYP2C9; assay type: in vitro ADME; parameters: incubated with human liver microsomes; tissue Eurofins ITEMG232; host or cells: human liver microsomes; conditions: probe diclofenac, substrate diclofenac, read-out: CYP2C9 Inh %
Sequence of CYP2C9 (P11712 whole entry): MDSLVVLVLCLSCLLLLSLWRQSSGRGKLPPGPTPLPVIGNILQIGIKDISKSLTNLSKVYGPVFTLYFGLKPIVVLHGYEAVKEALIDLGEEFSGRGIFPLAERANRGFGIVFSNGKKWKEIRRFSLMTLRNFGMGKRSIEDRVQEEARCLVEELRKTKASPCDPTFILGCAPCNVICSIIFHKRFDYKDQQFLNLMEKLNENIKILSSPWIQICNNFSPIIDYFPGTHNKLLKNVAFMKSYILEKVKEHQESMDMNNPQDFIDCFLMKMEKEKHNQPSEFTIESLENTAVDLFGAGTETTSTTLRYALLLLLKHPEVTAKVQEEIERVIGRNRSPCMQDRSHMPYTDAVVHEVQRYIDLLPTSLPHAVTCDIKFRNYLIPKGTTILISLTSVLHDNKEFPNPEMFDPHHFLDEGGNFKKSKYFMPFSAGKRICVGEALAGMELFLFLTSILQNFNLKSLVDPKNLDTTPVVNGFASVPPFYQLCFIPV
Description: as §1

CYP3A4&5 = assay: CYP inhibition in human liver microsomes, CYP3A4&5 (testosterone); assay type: in vitro ADME; conditions: probe testosterone, substrate testosterone, read-out: CYP3A4&5 testosterone Inh %
Description: as §1

CYP2D6 = molecular target: T3, CYP2D6 (Homo sapiens, UniProt P10635); assay: CYP inhibition in human liver microsomes, CYP2D6; assay type: in vitro ADME; conditions: probe dextromethorphan, substrate dextromethorphan, read-out: CYP2D6 Inh %
T3 construct: incubated with human liver microsomes; tissue Eurofins ITEMG232; host or cells: human liver microsomes
T3 sequence (P10635 whole entry): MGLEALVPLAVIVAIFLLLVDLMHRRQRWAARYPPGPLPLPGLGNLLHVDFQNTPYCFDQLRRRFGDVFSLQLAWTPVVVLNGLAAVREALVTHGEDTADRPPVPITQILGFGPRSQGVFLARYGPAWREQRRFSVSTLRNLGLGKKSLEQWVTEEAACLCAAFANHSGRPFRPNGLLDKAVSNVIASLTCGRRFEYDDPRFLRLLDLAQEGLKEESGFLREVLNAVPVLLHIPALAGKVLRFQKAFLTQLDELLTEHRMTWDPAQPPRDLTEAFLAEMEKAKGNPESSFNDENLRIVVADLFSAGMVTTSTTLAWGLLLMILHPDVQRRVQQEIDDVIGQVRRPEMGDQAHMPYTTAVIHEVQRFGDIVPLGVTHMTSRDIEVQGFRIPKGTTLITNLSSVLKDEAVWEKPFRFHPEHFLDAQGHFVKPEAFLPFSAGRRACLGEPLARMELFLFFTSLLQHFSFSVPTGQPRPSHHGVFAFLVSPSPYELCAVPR
Description: as §1

CYP3A4 = CYP3A4 (Homo sapiens, UniProt P08684); assay: CYP inhibition in human liver microsomes, CYP3A4 (midazolam); assay type: in vitro ADME; parameters: incubated with human liver microsomes; tissue Eurofins ITEMG232; host or cells: human liver microsomes; conditions: probe midazolam, substrate midazolam, read-out: CYP3A4 midazolam Inh %
Sequence of CYP3A4 (P08684 whole entry): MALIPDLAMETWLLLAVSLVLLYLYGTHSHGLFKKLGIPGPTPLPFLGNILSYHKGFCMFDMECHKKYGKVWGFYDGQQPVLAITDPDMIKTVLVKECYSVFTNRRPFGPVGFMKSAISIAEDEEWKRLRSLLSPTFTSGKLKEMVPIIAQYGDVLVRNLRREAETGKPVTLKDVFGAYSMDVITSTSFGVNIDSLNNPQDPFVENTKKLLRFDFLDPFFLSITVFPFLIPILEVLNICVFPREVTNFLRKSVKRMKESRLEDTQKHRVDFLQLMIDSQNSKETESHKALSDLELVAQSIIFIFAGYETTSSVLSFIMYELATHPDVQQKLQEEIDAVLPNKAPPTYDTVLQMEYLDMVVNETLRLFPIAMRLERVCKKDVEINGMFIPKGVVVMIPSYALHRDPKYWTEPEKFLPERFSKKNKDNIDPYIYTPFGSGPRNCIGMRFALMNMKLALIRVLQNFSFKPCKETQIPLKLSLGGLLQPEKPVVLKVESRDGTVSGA
Description: as §1

CYP2C19 = molecular target: T4, CYP2C19 (Homo sapiens, UniProt P33261); assay: CYP inhibition in human liver microsomes, CYP2C19; assay type: in vitro ADME; conditions: probe omeprazole, substrate omeprazole, read-out: CYP2C19 Inh %
T4 construct: incubated with human liver microsomes; tissue Eurofins ITEMG232; host or cells: human liver microsomes
T4 sequence (P33261 whole entry): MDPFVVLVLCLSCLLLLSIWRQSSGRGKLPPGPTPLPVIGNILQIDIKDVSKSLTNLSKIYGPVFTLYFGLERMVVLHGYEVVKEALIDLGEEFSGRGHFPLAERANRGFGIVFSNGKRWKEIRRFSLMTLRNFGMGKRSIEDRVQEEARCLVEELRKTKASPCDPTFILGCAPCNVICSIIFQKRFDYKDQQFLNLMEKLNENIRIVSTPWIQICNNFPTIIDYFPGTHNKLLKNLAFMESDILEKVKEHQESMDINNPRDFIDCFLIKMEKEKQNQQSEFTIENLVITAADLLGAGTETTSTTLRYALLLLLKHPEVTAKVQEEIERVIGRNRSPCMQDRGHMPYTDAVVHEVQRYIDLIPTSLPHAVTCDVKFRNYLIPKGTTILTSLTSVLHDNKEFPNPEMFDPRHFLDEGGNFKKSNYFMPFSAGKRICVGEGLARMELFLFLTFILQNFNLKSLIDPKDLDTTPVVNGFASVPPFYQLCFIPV
Description: as §1

CYP2B6 = molecular target: T5, CYP2B6 (Homo sapiens, UniProt P20813); assay: CYP inhibition in human liver microsomes, CYP2B6; assay type: in vitro ADME; conditions: probe bupropion, substrate bupropion, read-out: CYP2B6 Inh %
T5 construct: incubated with human liver microsomes; tissue Eurofins ITEMG232; host or cells: human liver microsomes
T5 sequence (P20813 1-491): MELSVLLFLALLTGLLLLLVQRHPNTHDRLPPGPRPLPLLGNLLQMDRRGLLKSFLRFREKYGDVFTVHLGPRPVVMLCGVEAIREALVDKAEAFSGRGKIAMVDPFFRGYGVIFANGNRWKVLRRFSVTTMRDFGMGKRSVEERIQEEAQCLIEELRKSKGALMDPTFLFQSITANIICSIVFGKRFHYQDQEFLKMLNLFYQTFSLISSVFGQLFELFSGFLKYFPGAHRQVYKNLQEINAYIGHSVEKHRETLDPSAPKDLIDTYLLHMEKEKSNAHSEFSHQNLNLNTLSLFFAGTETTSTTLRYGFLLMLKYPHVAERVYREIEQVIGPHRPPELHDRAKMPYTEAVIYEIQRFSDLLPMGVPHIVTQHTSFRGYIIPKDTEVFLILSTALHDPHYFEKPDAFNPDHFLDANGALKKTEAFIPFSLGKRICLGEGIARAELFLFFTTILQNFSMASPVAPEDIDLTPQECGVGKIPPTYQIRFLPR
Description: as §1

[2] = molecular target: T6, human recombinant AT2 receptor (Homo sapiens, UniProt P50052); assay: Binding to AT2 receptor, radiometric scintillation assay (Eurofins); conditions: ligand 125I CGP 42112A, tested at 1, 10, 100 and 1000 nM
T6 construct: purchased Eurofins ITEM26
T6 sequence (P50052 1-363): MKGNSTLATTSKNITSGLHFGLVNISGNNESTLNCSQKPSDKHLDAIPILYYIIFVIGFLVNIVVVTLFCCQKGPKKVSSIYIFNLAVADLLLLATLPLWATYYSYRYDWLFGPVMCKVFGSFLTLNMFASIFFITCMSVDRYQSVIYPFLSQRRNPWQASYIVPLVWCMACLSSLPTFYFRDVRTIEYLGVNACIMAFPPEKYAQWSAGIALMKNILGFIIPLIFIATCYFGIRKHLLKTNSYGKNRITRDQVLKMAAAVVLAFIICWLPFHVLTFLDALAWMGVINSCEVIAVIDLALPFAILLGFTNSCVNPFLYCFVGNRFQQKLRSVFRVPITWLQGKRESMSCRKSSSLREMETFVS
Description: Compounds were evaluated for binding to the human recombinant AT2 and AT1 receptor according to Eurofins protocol ITEM26 and ITEM24 using a radiometric scintillation assay.

[3] = with 1 mM NADPH, read-out: T1/2, + NaDPH
[4] = without NADPH, read-out: T1/2, no NaDPH

SMILES | inhibition at 10 µM (CYP1A) | half-life at 1 μM [1, 3] | half-life at 1 μM [1, 4] | inhibition at 10 µM (CYP2C8) | inhibition at 10 µM (CYP2C9) | inhibition at 10 µM (CYP3A4&5) | inhibition at 10 µM (CYP2D6) | inhibition at 10 µM (CYP3A4) | inhibition at 10 µM (CYP2C19) | inhibition at 10 µM (CYP2B6) | IC50 [2]
Cc1nccn1Cc1ccc(-c2cc(CC(C)C)sc2S(=O)(=O)NC(=O)NCCC(F)(F)F)cc1 [Example 3, 3-(5-isobutyl-3-{p-[(2-Methyl-1H-imidazol-1-yl)methyl]phenyl}-2-thienylsulfonyl)-1-(3,3,3-trifluoropropyl)-urea] | -4.2% | > 1 h | > 1 h | 25.3% | 21.6% | 8.2% | 5.5% | 4.1% | 37.3% | 9.9% | 
CCc1nccn1Cc1ccc(-c2cc(CC(C)C)sc2S(=O)(=O)NC(=O)NCc2ccccn2)cc1 [Example 9, 3-(3-{p-[(2-Ethyl-1H-imidazol-1-yl)methyl]phenyl}-5-isobutyl-2-thienylsulfonyl)-1-[(2-pyridyl)methyl]urea] | -9% | > 1 h | > 1 h | 52% | 28% | 17% | 24% | -19% | 18% | 0% | 
Cc1nccn1Cc1ccc(-c2cc(CC(C)C)sc2S(=O)(=O)NC(=O)NCc2ccccc2)cc1F [Example 12, 1-Benzyl-3-(3-{3-fluoro-4-[(2-methyl-1H-imidazol-1-yl)methyl]phenyl}-5-isobutyl-2-thienylsulfonyl)urea] | 4% |  |  | 51% | 64% | 24% | 58% | 32% | 62% | 33% | 
Cc1nccn1Cc1ccc(-c2cc(CC(C)C)sc2S(=O)(=O)NC(=O)NCCCC(F)(F)F)cc1F [Example 18, 3-(3-{3-Fluoro-4-[(2-methyl-1H-imidazol-1-yl)methyl]phenyl}-5-isobutyl-2-thienylsulfonyl)-1-(4,4,4-trifluorobutyl)urea] | 15% | 0.5 h | > 1 h | 72% | 62% | 24% | 20% | 50% | 78% | 59% | 
Cc1nccn1Cc1ccc(-c2cc(CC(C)C)sc2S(=O)(=O)NC(=O)NCCC(F)(F)F)c(F)c1 [Example 26, 3-(3-{2-Fluoro-4-[(2-methyl-1H-imidazol-1-yl)methyl]phenyl}-5-isobutyl-2-thienylsulfonyl)-1-(3,3,3-trifluoropropyl)urea] |  | > 1 h | > 1 h |  |  |  |  |  |  |  | 25 nM
Cc1nccn1Cc1ccc(-c2cc(CC(C)C)sc2S(=O)(=O)NC(=O)NCC(F)(F)F)c(F)c1 [Example 27, 3-(3-{2-Fluoro-4-[(2-methyl-1H-imidazol-1-yl)methyl]phenyl}-5-isobutyl-2-thienylsulfonyl)-1-(2,2,2-trifluoroethyl)urea] |  |  |  |  |  |  |  |  |  |  | 61 nM
CCc1nccn1Cc1ccc(-c2cc(CC(C)C)sc2S(=O)(=O)NC(=O)NCCC(F)(F)F)cc1F.O=C(O)C(F)(F)F [Example 30, 1-[(3-{4-[(2-ethyl-1H-imidazol-1-yl)methyl]-3-fluorophenyl}-5-(2-methylpropyl)thiophen-2-yl)sulfonyl]-3-(3,3,3-trifluoropropyl)urea trifluoroacetic acid] | -1% | 0.667 h | > 1 h | 64% | 61% | 13% | 12% | -3% | 53% | 30% | 

Continued, values first:

inhibition at 10 µM (CYP1A) | half-life at 1 μM [1, 3] | half-life at 1 μM [1, 4] | inhibition at 10 µM (CYP2C8) | inhibition at 10 µM (CYP2C9) | inhibition at 10 µM (CYP3A4&5) | inhibition at 10 µM (CYP2D6) | inhibition at 10 µM (CYP3A4) | inhibition at 10 µM (CYP2C19) | inhibition at 10 µM (CYP2B6) | IC50 [2] | SMILES
21.2% | 0.767 h | > 1 h | 60.2% | 24% | 29.8% | 0% | 17.5% | 95.8% | 18.8% |  | Cc1cn(Cc2ccc(-c3cc(CC(C)C)sc3S(=O)(=O)NC(=O)NCCC(F)(F)F)cc2)c(C)n1 [Example 8, 3-(3-{p-[(2,4-Dimethyl-1H-imidazol-1-yl)methyl]phenyl}-5-isobutyl-2-thienylsulfonyl)-1-(3,3,3-trifluoropropyl)urea]
 | > 1 h | > 1 h |  |  |  |  |  |  |  | 32 nM | Cc1nccn1Cc1ccc(-c2cc(CC(C)C)sc2S(=O)(=O)NC(=O)NCCCF)cc1 [Example 28, 1-(3-Fluoropropyl)-3-(5-isobutyl-3-{p-[(2-methyl-1H-imidazol-1-yl)methyl]phenyl}-2-thienylsulfonyl)urea]
 |  |  |  |  |  |  |  |  |  | 33 nM | Cc1nccn1Cc1ccc(-c2cc(CC(C)C)sc2S(=O)(=O)NC(=O)NCCC(F)F)cc1 [Example 29, 1-(3,3-Difluoropropyl)-3-(5-isobutyl-3-{p-[(2-methyl-1H-imidazol-1-yl)methyl]phenyl}-2-thienylsulfonyl)urea]
